Data set [1] concerns rabbit conjunctival tissue. In words: histologic analysis of bleb tissue after glaucoma filtration surgery. It counts as in vivo. As to conditions: for expression of αSMA by cells in tissue sections / scar tissue formation (picrosirius red) compared to vehicle control: day 30; for newly laid extracellular matrix and collagen (Gomori's trichrome): day 30, vehicle versus treated. As to the method:
We further evaluated the histologic differences after local delivery of CCG-222740 and CCG-203971. The white filtration tube was used as landmark and the plane of sectioning of the bleb area was performed 2 mm from the tube (black line in Fig. 5). Grading was performed using a modified system originally described by Shah et al.[34]. The left operated eyes were compared to the right non-operated eyes that were used as controls for the appearance of normal conjunctival tissue. The sections were graded using a scale of −4 to +4 (0 = same as control eye; 1 = 1–25% difference from control eye; 2 = 26–50% difference from control eye; 3 = 51–75% difference from control eye; 4 = >75% difference from control eye; prefix+, more than; prefix−, less than). Analysis was performed using the mean results in each treatment group.
The animals were sacrificed on day 30 and both eyes were enucleated. The eyes were fixed in formalin, embedded in paraffin, and sequential 4 μm tissue sections were cut.
The sections were stained with hematoxylin and eosin (for cellularity and inflammatory cells), Gomori’s trichrome (for collagen), picrosirius red (for degree of fibrosis and collagen deposition), and alpha-smooth muscle actin (αSMA) using a primary monoclonal mouse anti-human αSMA antibody (Clone 1A4; Dako, High Wycombe, UK) and a biotinylated secondary antibody (rabbit anti-mouse; Dako). All the left operated eyes were compared to the right non-operated eyes that were used as controls for the appearance of normal conjunctival tissue. The sections were graded using a modified grading system originally described by Shah et al.[34], with a scale of −4 to +4 according to the staining intensity. Grades were defined as 0 = same as control eye; 1 = 1–25% difference from control eye; 2 = 26–50% difference from control eye; 3 = 51–75% difference from control eye; 4 = >75% difference from control eye (prefix+, more than; prefix −, less than).

Data set [2] in a line: drug levels in aqueous, vitreous and serum by LC/MS. To be noted: rabbit, day 30, 48 hours after the last subconjunctival dose. It counts as in vivo. As to the method: All animals were carefully evaluated for any signs of ocular or systemic toxicity during the study. At day 30, 100 µl of aqueous, 1 ml of vitreous, and 1 ml of venous blood were sampled on the rabbit eyes receiving CCG-222740 or CCG-203971 or vehicle control. The venous blood samples were left to clot for 30 minutes at room temperature, spun at 4000 rpm for 15 minutes at 4 °C, and the serum was collected as the supernatant. Samples were extracted in acetonitrile and the levels of CCG-222740 and CCG-203971 were measured in the aqueous, vitreous, and serum using liquid chromatography/mass spectrometry (LC/MS) in the Metabolomics Core at Michigan State University (East Lansing, MI).

Data set [3] concerns human conjunctival fibroblasts. Put plainly: fibroblast-populated collagen contraction assay (human). To be noted: for IC50: human conjunctival fibroblasts in collagen type I matrix, 7 days. It counts as cell-based. As to the method: (§1) We screened two candidate MRTF/SRF pathway inhibitors, CCG-222740 and CCG-203971, using detached three-dimensional fibroblast-populated collagen gels[56], [57]. Human or rabbit conjunctival fibroblasts were seeded in a collagen Type I matrix (First Link UK Ltd, Birmingham, UK) at a concentration of 0.7 × 10^4 cells/ml. The fibroblast-populated collagen gel mixture was cast into the wells of MatTek dishes (MatTek Corp, MI, USA). The gels were detached from the edges of the well and 2 ml of growth medium were added to each well with 5, 25, 50, 75, or 100 μM of CCG-222740 or CCG-203971 or 0.1% DMSO control. Digital photographs were obtained daily and lattice areas were measured using Image J software (http://rsb.info.nih.gov/ij/). The gel size at day 7 was assessed as a percentage of lattice area on day 0. Each experiment was performed as triplicate gels per condition and the experiment was repeated on three separate days.

Data set [4] deals with ACTA2 in rabbit conjunctival fibroblasts. Put plainly: ACTA2 gene expression by qRT-PCR (rabbit). To be noted: 24 hours. It counts as cell-based. As to the method:
Human or rabbit conjunctival fibroblasts were plated at 1 × 10^5 cells/well in 6-well plates (Falcon, Fisher Scientific). The next day, the fibroblasts were treated with 5, 10, 25, or 50 μM of CCG-222740 or CCG-203971 or 0.1% DMSO control in DMEM +10% FCS for 24 hours. The fibroblasts were then lysed for RNA extraction using the Sigma RNA isolation kit (Sigma-Aldrich), according to the manufacturer’s instructions. Reverse transcription was carried out using the Transcriptor First Strand cDNA Synthesis Kit (Roche), according to the manufacturer’s instructions. qRT-PCR reactions were performed using SYBR green reagents (Life Technologies) on an HT7900 Fast Real-Time PCR system (Applied Biosystems). The human exonic primer sequences were: ACTA2, 5′-[…]-3′, 3′-[…]-5′; CTGF, 5′-CAGAGTGGAGCGCCTGTT-3′, 3′-CTGCAGGAGGCGTTGTCA-5′; GAPDH, 5′-[…]-3′, 3′-[…]-5′. The rabbit exonic primer sequences were ACTA2, 5′- […]-3′, 3′- […]-5′; GAPDH, 5′-CGAGACACGATGGTGAAGG-3′, 3′-[…]-5′. All mRNA values were normalised relative to that of GAPDH. Each experiment was carried out in triplicates for each treatment group and the experiment was repeated three times.

In data set [5] the test system is αSMA protein in human conjunctival fibroblasts. Put plainly: Western blot of αSMA protein expression. It counts as cell-based. As to conditions: 10 or 25 μM, 48 hours. As to the method:
Human conjunctival fibroblasts were lysed using 2x SDS sample buffer (100 mM Tris HCL ph6.8, 4% SDS, 20% glycerol, 200 mM dithiothreitol, 0.2% bromophenol blue). Equal amounts of protein were loaded onto and run on 4–12% NuPAGE Bis-Tris protein gels (Novex, Life Technologies). The gels were transferred onto nitrocellulose blotting membranes (Amersham, Life Sciences), and blocked in 3% non-fat milk in PBST (PBS 0.1% Tween) for 1 hour. The membranes were then incubated overnight at 4 °C in αSMA primary antibody (1:200, polyclonal rabbit, ab5694, Abcam). The next day, the membranes were washed three times for 10 minutes in PBST, and incubated for 1 hour at room temperature in anti-rabbit HRP (1:2500, Dako). The membranes were then washed three times for 10 minutes in PBST, treated with ECL solution (Amersham, Life sciences) for 5 minutes, and scanned on an Odyssey IR Imager (LI-COR).
For orientation: A western blot detects proteins with antibodies after separation by electrophoresis.

Data set [6] has as its system rabbit conjunctival fibroblasts. Put plainly: fibroblast-populated collagen contraction assay (rabbit). It counts as cell-based. As to conditions: 7 days. As to the method: as §1

As a reminder, the IC50 is the midpoint of a concentration-inhibition curve. A high value points to a need for much substance. On to `O=C(Nc1ccc(Cl)cc1)C1CCCN(C(=O)c2cccc(-c3ccco3)c2)C1` (stereo not drawn) [CCG-203971], for which, in data set [1], the “expression of αSMA by cells in tissue sections” value is “significantly decreased the expression of αSMA”; the “scar tissue formation (picrosirius red) compared to vehicle control” value is on record as “significant decrease in scar tissue formation”; the “newly laid extracellular matrix and collagen (Gomori's trichrome)” value is on record as “present to a greater degree in the vehicle-treated group compared to”. Also, in data set [2], the “drug level in aqueous” value is given as “below 20 nM”, the “drug level in serum” value is on record as “below 20 nM” and the “drug level in vitreous” value is listed as “below 20 nM”. Moreover, half-maximal inhibition in data set [3] (IC50) was put at 25 µM.
In the case of `O=C(Nc1ccc(Cl)cc1)C1CN(C(=O)c2cccc(-c3ccco3)c2)CC(F)(F)C1` (stereo not drawn) [CCG-222740], in data set [1], the “expression of αSMA by cells in tissue sections” value is “significantly decreased the expression of αSMA”; the “scar tissue formation (picrosirius red) compared to vehicle control” value was “significant decrease in scar tissue formation”; the “newly laid extracellular matrix and collagen (Gomori's trichrome)” value is “present to a greater degree in the vehicle-treated group compared to”. Further, the “ACTA2 gene expression, comparison” value in data set [4] is on record as “decreased ACTA2 gene expression to a greater extent than CCG-203971”. The “αSMA protein expression, comparison” value in data set [5] is listed as “more potent than CCG-203971 at decreasing αSMA protein expression”. Further, in data set [2], the “drug level in aqueous” value is “below 20 nM”, the “drug level in serum” value was “below 20 nM” and the “drug level in vitreous” value was “below 20 nM”. Moreover, the “potency in collagen contraction relative to CCG-203971” value in data set [3] (human conjunctival fibroblasts) is “five times more potent than CCG-203971”. In data set [3], this compound showed an IC50 of 5 µM. Also, the “decrease of collagen matrix contraction, comparison” value in data set [6] is given as “more effective at decreasing collagen matrix contraction than CCG-203971”.
